Measurements published in the supplement of paper PMC10307832.

Columns and labels:
Test in all cases: relative viability (nuclei count vs DMSO), 5 days (fraction); higher = more cells survive
[1] = compound: C#Cc1cccc(Nc2ncnc3cc(OC)c(OCCCCCCC(=O)NO)cc23)c1 [CUDC-101] + Nc1nc2[nH]cc(CCc3ccc(C(=O)N[C@@H](CCC(=O)O)C(=O)O)cc3)c2c(=O)[nH]1 [Pemetrexed] (partner 0.2 µM)
Procedure, shortened: (§1)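 Lung cancer cell lines were seeded in 1536-well plates and dosed by pin tool the next day, with either a single drug or a fixed anchor-drug dose combined with five library-drug doses (not always all listed) spaced in √10 steps. Five days later, one step fixed the cells and stained their nuclei (final 0.05% Triton X-100, 1% formaldehyde, 1 ug/ml Hoechst), and nuclei were counted on 4× images. Relative viability is the nuclei count in treated wells divided by the count in vehicle wells, and each value is the median of duplicate plates.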

[2] = compound: COc1cc(N2CCC(N3CCN(C)CC3)CC2)ccc1Nc1ncc(Cl)c(Nc2ccccc2S(=O)(=O)C(C)C)n1 [NVP-TAE684] + COc1cc2c(Oc3ccc(NC(=O)C4(C(=O)Nc5ccc(F)cc5)CC4)cc3F)ccnc2cc1OCCCN1CCOCC1 [Foretinib] (partner 0.25 µM)
Procedure, shortened: as §1

[3] = compound: C1=CC=C2C(=C1)N=C(S2)C(C#N)C3=NC(=NC=C3)NCCC4=CN=CC=C4 + O=C(c1cc(Cc2n[nH]c(=O)c3ccccc23)ccc1F)N1CCN(C(=O)C2CC2)CC1 [Olaparib] (partner 8 µM)
Procedure, shortened: as §1

[4] = compound: COc1cc(N2CCC(N3CCN(C)CC3)CC2)ccc1Nc1ncc(Cl)c(Nc2ccccc2S(=O)(=O)C(C)C)n1 [NVP-TAE684] + Nc1nc2[nH]cc(CCc3ccc(C(=O)N[C@@H](CCC(=O)O)C(=O)O)cc3)c2c(=O)[nH]1 [Pemetrexed] (partner 0.2 µM)
Procedure, shortened: as §1

[5] = compound: COc1cc(N2CCC(N3CCN(C)CC3)CC2)ccc1Nc1ncc(Cl)c(Nc2ccccc2S(=O)(=O)C(C)C)n1 [NVP-TAE684] + CCNC(=O)c1noc(-c2cc(C(C)C)c(O)cc2O)c1-c1ccc(CN2CCOCC2)cc1 [Luminespib] (partner 0.01 µM)
Procedure, shortened: as §1

Row | Cell Line | relative viability ([1]; first compound 0.01 µM) | relative viability ([1]; first compound 0.03162 µM) | relative viability ([1]; first compound 0.1 µM) | relative viability ([1]; first compound 0.3162 µM) | relative viability ([1]; first compound 1 µM) | relative viability ([2]; first compound 0.2 µM) | relative viability ([2]; first compound 0.6325 µM) | relative viability ([2]; first compound 2 µM) | relative viability ([3]; first compound 0.005 µM) | relative viability ([3]; first compound 0.01581 µM) | relative viability ([3]; first compound 0.05 µM) | relative viability ([3]; first compound 0.1581 µM) | relative viability ([3]; first compound 0.5 µM) | relative viability ([4]; first compound 0.2 µM) | relative viability ([4]; first compound 0.6325 µM) | relative viability ([4]; first compound 2 µM) | relative viability ([5]; first compound 0.2 µM) | relative viability ([5]; first compound 0.6325 µM) | relative viability ([5]; first compound 2 µM)
1 | NCI-H650 | 1.02 | 0.916 | 1 | 0.904 | 0.803 | 0.983 | 1 | 0.753 | 0.412 | 0.369 | 0.441 | 0.345 | 0.363 | 0.901 | 0.939 | 0.757 | 0.776 | 0.682 | 0.489
2 | NCI-H441 | 0.248 | 0.261 | 0.263 | 0.274 | 0.228 | 0.892 | 0.832 | 0.382 | 0.423 | 0.643 | 0.544 | 0.683 | 0.455 | 0.271 | 0.29 | 0.223 | 0.315 | 0.313 | 0.36
3 | NCI-H1793 | 0.75 | 0.777 | 0.663 | 0.889 | 0.494 | 0.684 | 0.587 | 0.22 | – | 0.931 | 0.781 | 0.995 | 0.804 | 0.929 | 0.651 | 0.779 | 0.164 | 0.168 | 0.144
4 | NCI-H1915 | 0.495 | 0.45 | 0.45 | 0.497 | 0.455 | 1.04 | 1.1 | 0.902 | – | 0.266 | 0.249 | 0.283 | 0.292 | 0.537 | 0.463 | 0.472 | 0.631 | 0.821 | 0.699
5 | LCLC-103H | 0.472 | 0.537 | 0.486 | 0.456 | 0.429 | 0.681 | 0.681 | 0.297 | 0.628 | 0.829 | 0.764 | 0.849 | 0.649 | 0.473 | 0.48 | 0.478 | 0.918 | 0.923 | 0.61
6 | SK-LU-1 | 0.948 | 1.12 | 0.948 | 0.965 | 0.947 | 0.947 | 0.766 | 0.469 | 0.404 | 0.454 | 0.481 | 0.513 | 0.483 | 0.826 | 1 | 0.575 | 0.188 | 0.217 | 0.167
7 | NCI-H1666 | 0.985 | 0.843 | 0.774 | 0.854 | 0.833 | 0.973 | 0.899 | 0.801 | 0.754 | 0.761 | 0.764 | 0.767 | 0.681 | 0.985 | 0.796 | 0.77 | 0.945 | 0.975 | 0.843
8 | COR-L23 | 0.184 | 0.196 | 0.2 | 0.186 | 0.175 | 0.967 | 0.996 | 0.332 | 0.318 | 0.327 | 0.355 | 0.373 | 0.306 | 0.205 | 0.203 | 0.197 | 0.909 | 0.457 | 0.152
9 | NCI-H460 | 0.0606 | 0.0635 | 0.0676 | 0.0669 | 0.0703 | 1.2 | 1.02 | 0.817 | 0.4 | 0.502 | 0.43 | 0.516 | 0.333 | 0.0526 | 0.0587 | 0.0483 | 0.0418 | 0.0325 | 0.0305
